Test results published in US20090105305A1, “Therapeutic Agents - 550” (AstraZeneca AB, priority 2006, published 2009).

Biological target: T1, human Fatty Acid Synthase (Homo sapiens, UniProt P49327)
T1 construct: made in house
Assay: Human FAS enzyme assay (decrease in NADPH fluorescence)
Assay type: biochemical
Details: % inhibition at a concentration of 100 micromolar
Method in brief: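 In-house human FAS (0.4 μg) was preincubated 15 min at RT with compound and NADPH (added at 166.6 μM) in 0.1 M Tris pH 7.5, 1 mM glutathione, 0.05% BSA. Malonyl-/acetyl-CoA (500/150 μM in substrate mix) was then added for 60 min. Readout was NADPH fluorescence loss (ex 340/em 460) over a time-zero read, with IC50 from a sigmoid fit.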

T1 sequence (P49327 whole entry): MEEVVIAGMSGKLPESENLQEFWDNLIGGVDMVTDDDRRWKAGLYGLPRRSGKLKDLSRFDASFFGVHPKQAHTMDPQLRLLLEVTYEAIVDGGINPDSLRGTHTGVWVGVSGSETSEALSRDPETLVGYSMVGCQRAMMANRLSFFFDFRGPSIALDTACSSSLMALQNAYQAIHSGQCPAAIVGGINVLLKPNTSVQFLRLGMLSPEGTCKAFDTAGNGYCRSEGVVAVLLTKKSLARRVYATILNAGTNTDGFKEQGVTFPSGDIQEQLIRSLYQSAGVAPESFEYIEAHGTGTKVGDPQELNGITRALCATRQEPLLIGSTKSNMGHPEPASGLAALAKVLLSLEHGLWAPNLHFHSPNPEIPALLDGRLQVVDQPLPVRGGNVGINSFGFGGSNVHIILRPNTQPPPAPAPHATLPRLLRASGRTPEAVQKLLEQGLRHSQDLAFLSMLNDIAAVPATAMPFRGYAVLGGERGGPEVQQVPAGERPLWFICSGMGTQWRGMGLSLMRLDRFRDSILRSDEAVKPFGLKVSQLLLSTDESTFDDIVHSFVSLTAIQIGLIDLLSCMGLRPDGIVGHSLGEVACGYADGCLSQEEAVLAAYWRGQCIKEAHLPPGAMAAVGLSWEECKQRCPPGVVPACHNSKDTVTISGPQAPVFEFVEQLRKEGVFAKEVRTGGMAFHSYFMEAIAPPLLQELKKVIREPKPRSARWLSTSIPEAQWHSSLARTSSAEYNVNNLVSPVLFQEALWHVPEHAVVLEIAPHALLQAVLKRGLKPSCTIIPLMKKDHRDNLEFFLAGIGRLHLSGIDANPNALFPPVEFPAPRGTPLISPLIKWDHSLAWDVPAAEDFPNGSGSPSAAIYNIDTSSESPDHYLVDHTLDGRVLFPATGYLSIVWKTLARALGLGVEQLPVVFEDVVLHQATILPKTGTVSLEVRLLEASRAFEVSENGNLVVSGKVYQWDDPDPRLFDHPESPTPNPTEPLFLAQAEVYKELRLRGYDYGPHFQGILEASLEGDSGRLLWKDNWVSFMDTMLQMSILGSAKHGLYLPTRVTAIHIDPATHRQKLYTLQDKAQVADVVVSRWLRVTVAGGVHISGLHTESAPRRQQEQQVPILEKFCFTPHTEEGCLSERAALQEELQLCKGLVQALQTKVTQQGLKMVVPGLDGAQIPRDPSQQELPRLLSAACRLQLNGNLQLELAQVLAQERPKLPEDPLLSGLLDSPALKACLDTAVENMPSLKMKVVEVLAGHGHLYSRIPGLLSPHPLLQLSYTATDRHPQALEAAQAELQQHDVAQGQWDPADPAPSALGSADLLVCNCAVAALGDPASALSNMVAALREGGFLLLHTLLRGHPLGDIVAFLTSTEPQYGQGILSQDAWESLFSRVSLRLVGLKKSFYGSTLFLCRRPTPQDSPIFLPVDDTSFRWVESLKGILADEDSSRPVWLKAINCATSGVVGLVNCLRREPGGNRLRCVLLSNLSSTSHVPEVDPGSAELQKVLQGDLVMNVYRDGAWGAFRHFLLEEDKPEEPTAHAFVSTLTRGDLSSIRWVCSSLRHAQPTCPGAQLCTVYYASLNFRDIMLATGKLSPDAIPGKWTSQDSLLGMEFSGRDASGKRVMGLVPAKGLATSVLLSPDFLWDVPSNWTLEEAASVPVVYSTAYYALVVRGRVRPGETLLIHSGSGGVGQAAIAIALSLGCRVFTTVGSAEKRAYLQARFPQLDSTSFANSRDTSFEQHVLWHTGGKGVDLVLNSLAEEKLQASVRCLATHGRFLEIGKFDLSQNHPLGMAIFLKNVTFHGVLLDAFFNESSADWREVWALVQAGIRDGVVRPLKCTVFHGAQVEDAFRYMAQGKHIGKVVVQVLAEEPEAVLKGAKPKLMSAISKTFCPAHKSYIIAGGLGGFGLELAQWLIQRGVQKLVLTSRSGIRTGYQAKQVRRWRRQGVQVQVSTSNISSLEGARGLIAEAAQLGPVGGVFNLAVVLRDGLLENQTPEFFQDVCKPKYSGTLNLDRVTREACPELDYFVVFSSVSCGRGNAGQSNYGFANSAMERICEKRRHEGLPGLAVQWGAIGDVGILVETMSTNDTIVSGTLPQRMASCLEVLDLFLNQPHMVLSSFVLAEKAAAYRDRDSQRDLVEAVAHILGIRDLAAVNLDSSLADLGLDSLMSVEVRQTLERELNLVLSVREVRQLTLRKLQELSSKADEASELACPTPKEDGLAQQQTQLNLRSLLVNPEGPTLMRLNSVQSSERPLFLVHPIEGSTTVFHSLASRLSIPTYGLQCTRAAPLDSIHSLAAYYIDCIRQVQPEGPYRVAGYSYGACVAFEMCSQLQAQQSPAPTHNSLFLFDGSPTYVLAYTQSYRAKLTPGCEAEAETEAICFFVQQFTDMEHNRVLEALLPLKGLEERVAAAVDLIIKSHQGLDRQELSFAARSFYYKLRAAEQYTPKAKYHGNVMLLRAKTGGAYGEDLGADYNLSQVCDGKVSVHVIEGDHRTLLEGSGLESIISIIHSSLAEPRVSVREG

| inhibition at 100 µM [%] | SMILES |
| --- | --- |
| 88 | COC(=O)CCS(=O)(=O)Nc1cc(C(=O)N2CCC(c3ccc(C#N)cc3)CC2)ccc1C [Example 144, Methyl 3-[[5-[4-(4-cyanophenyl)piperidine-1-carbonyl]-2-methyl-phenyl]sulfamoyl]propanoate] |
| 97 | Cc1ccc(C(=O)N2CCC(c3ccc(C#N)cc3)CC2)cc1NS(=O)(=O)c1cnn(C)c1 [Example 145, N-[5-[4-(4-cyanophenyl)piperidine-1-carbonyl]-2-methyl-phenyl]-1-methyl-pyrazole-4-sulfonamide] |
| 90 | C=CCS(=O)(=O)Nc1cc(C(=O)N2CCC(c3ccc(C#N)cc3)CC2)ccc1C [Example 146, N-(5-(4-(4-cyanophenyl)piperidine-1-carbonyl)-2-methylphenyl)prop-2-ene-1-sulfonamide] |
| 100 | CCC1(CS(=O)(=O)Nc2cc(C(=O)N3CCC(c4ccc(C#N)cc4)CC3)ccc2C)NC(=O)NC1=O (centres unmarked) [Example 148, N-[5-[4-(4-cyanophenyl)piperidine-1-carbonyl]-2-methyl-phenyl]-1-(4-ethyl-2,5-dioxo-imidazolidin-4-yl)methanesulfonamide] |
| 85 | Cc1ccc(C(=O)N2CCC(c3ccc(C#N)cc3)CC2)cc1NS(=O)(=O)c1c(C)noc1C [Example 149, N-[5-[4-(4-cyanophenyl)piperidine-1-carbonyl]-2-methyl-phenyl]-3,5-dimethyl-1,2-oxazole-4-sulfonamide] |
| 88 | Cc1ccc(C(=O)N2CCC(c3ccc(C#N)cc3)CC2)cc1NS(=O)(=O)CC(O)CN(C)C (centres unmarked) [Example 150, N-[5-[4-(4-cyanophenyl)piperidine-1-carbonyl]-2-methyl-phenyl]-3-dimethylamino-2-hydroxy-propane-1-sulfonamide] |
| 81 | Cc1ccc(C(=O)N2CCC(c3ccc(C#N)cc3)CC2)cc1NS(=O)(=O)CCC(=O)O [Example 151, 3-[[5-[4-(4-cyanophenyl)piperidine-1-carbonyl]-2-methyl-phenyl]sulfamoyl]propanoic acid] |
| 87 | Cc1ccc(C(=O)N2CCC(c3ccc(C#N)cc3)CC2)cc1NS(=O)(=O)c1c(C)nn(C)c1C [Example 152, N-[5-[4-(4-cyanophenyl)piperidine-1-carbonyl]-2-methyl-phenyl]-1,3,5-trimethyl-pyrazole-4-sulfonamide] |
| 97 | CC(=O)N1CCC(S(=O)(=O)Nc2cc(C(=O)N3CCC(c4ccc(C#N)cc4)CC3)ccc2C)C1 (centres unmarked) [Example 153, 1-acetyl-N-[5-[4-(4-cyanophenyl)piperidine-1-carbonyl]-2-methyl-phenyl]pyrrolidine-3-sulfonamide] |
| 99 | Cc1ccc(C(=O)N2CCC(c3ccc(C#N)cc3)CC2)cc1NS(=O)(=O)C1CCN(S(C)(=O)=O)C1 (centres unmarked) [Example 154, N-[5-[4-(4-cyanophenyl)piperidine-1-carbonyl]-2-methyl-phenyl]-1-methylsulfonyl-pyrrolidine-3-sulfonamide] |
| 84 | Cc1ccc(C(=O)N2CCC(c3ccc(Cl)cc3)CC2)cc1NS(C)(=O)=O [Example 155, N-[5-[4-(4-chlorophenyl)piperidine-1-carbonyl]-2-methyl-phenyl]methanesulfonamide] |
| 74 | CNC(=O)c1ccc(C2CCN(C(=O)c3ccc(C)c(NS(C)(=O)=O)c3)CC2)cc1 [Example 156, 4-[1-(3-methanesulfonamido-4-methyl-benzoyl)-4-piperidyl]-N-methyl-benzamide] |
| 78 | Cc1ccc(C(=O)N2CCC(c3ccc(C(F)(F)F)cc3)CC2)cc1NS(C)(=O)=O [Example 157, N-[2-methyl-5-[4-[4-(trifluoromethyl)phenyl]piperidine-1-carbonyl]phenyl]methanesulfonamide] |
| 81 | Cc1ccc(C2CCN(C(=O)c3ccc(C)c(NS(C)(=O)=O)c3)CC2)cc1 [Example 158, N-[2-methyl-5-[4-(4-methylphenyl)piperidine-1-carbonyl]phenyl]methanesulfonamide] |
| 80 | CSc1ccc(C(=O)N2CCC(c3ccc(C#N)cc3)CC2)cc1NS(C)(=O)=O [Example 159, N-[5-[4-(4-cyanophenyl)piperidine-1-carbonyl]-2-methylsulfanylphenyl]methanesulfonamide] |
| 89 | CSc1ccc(C(=O)N2CCC(c3ccc(C#N)cc3)CC2)cc1NS(=O)(=O)Cc1ccccc1 [Example 160, N-[5-[4-(4-cyanophenyl)piperidine-1-carbonyl]-2-methylsulfanylphenyl]-1-phenylmethanesulfonamide] |
| 80 | COCc1ccc(C(=O)N2CCC(c3ccc(C#N)cc3)CC2)cc1NS(C)(=O)=O [Example 161, N-[5-[4-(4-cyanophenyl)piperidine-1-carbonyl]-2-(methoxymethyl)phenyl]methanesulfonamide] |
| 86 | COc1ccc(C2CCN(C(=O)c3ccc(C)c(NS(C)(=O)=O)c3)CC2)cc1 [Example 162, N-[5-[4-(4-methoxyphenyl)piperidine-1-carbonyl]-2-methylphenyl]methanesulfonamide] |
| 85 | Cc1ccc(C(=O)N2CCC(c3ccc(CNS(C)(=O)=O)cc3)CC2)cc1NS(C)(=O)=O [Example 163, N-[[4-[1-(3-methanesulfonamido-4-methylbenzoyl)piperidin-4-yl]phenyl]methyl]methanesulfonamide] |
| 83 | CC(=O)NCc1ccc(C2CCN(C(=O)c3ccc(C)c(NS(C)(=O)=O)c3)CC2)cc1 [Example 164, N-[[4-[1-(3-methanesulfonamido-4-methylbenzoyl)piperidin-4-yl]phenyl]methyl]acetamide] |
| 76 | Cc1ccc(C(=O)N2CCC(c3ccc(CO)cc3)CC2)cc1NS(C)(=O)=O [Example 165, N-[5-[4-[4-(hydroxymethyl)phenyl]piperidine-1-carbonyl]-2-methylphenyl]methanesulfonamide] |
| 96 | CCS(=O)(=O)Nc1cc(C(=O)N2CCC(c3ccc(C#N)cc3)CC2)c(C)cc1C [Example 166, N-[5-[4-(4-cyanophenyl)piperidine-1-carbonyl]-2,4-dimethylphenyl]ethanesulfonamide] |
| 87 | Cc1nc(-c2ccc(C3CCN(C(=O)c4ccc(C)c(NS(C)(=O)=O)c4)CC3)cc2)no1 [Example 167, N-[2-methyl-5-[4-[4-(5-methyl-1,2,4-oxadiazol-3-yl)phenyl]piperidine-1-carbonyl]phenyl]methanesulfonamide] |
| 75 | Cc1ccc(C(=O)N2CCC(c3ccc(-c4nnco4)cc3)CC2)cc1NS(C)(=O)=O [Example 168, N-[2-methyl-5-[4-[4-(1,3,4-oxadiazol-2-yl)phenyl]piperidine-1-carbonyl]phenyl]methanesulfonamide] |
| 90 | Cc1ccc(C(=O)N2CCC(c3ccc(Br)cc3)CC2)cc1NS(C)(=O)=O [Example 169, N-[5-[4-(4-bromophenyl)piperidine-1-carbonyl]-2-methylphenyl]methanesulfonamide] |
| 74 | Cc1ccc(C(=O)N2CCC(c3ccc(-c4nccs4)cc3)CC2)cc1NS(C)(=O)=O [Example 170, N-[2-methyl-5-[4-[4-(1,3-thiazol-2-yl)phenyl]piperidine-1-carbonyl]phenyl]methanesulfonamide] |
